Reference: paper PMC12171880, “Selectivity and Safety Characterization of a Xanthine–Imidazothiazole Lead Structure: a Novel Tryptophan Hydroxylase Inhibitor of Peripheral Serotonin Synthesis” (ACS Pharmacology & Translational Science, 2025)

How the values were obtained:
[1] = system: 97 targets (receptors, enzymes, and ion channels); experiment: Eurofins Diversity Panel, 97 binding, enzyme and uptake assays; conditions: 10 μM
Procedure: TPT-004 was evaluated at a concentration of 10 μM in a total of 97 binding, enzyme, and uptake assays (Diversity Panel) by Eurofins Cerep (Celle l’Evescault, France). Compound binding was calculated as % inhibition of the binding of a ligand specific to each target. The compound enzyme inhibition effect was calculated as percentage inhibition of the control enzyme activity. Results showing an inhibition (or stimulation for assays run under basal conditions) of >50% are considered to represent significant effects of the test compounds. Results showing an inhibition (or stimulation) between 25% and 50% are indicative of weak to moderate effects. Results showing an inhibition (or stimulation) lower than 25% are not considered significant and are mostly attributable to variability in the signal around the control level. […] In each experiment, and if applicable, the respective reference compound was tested concurrently with TPT-004, and the data were compared with historical values determined at Eurofins. […]
The results are expressed as a percent of control-specific binding: measured specific binding/control specific binding×100 and as a percent inhibition of control-specific binding: 100−(measured specific binding/control specific binding×100) obtained in the presence of TPT-004. […]

[2] = system: Sprague–Dawley rats; experiment: Dose-range finding study in rats, histopathology; format: in vivo, rat
Procedure: Blood samples were collected as described below. The animal sacrifice (exsanguination) was performed on day 8. During the necropsy, the selected organs were collected, weighed, and shipped to a third-party laboratory for histopathological examination (as described below).
The histological evaluation was performed by AnaPath Services GmbH (Liestal, Switzerland). The samples from the organs–liver, kidney, lung, heart, brain, femur, and ovary–were fixed in 4% neutral-buffered formaldehyde. The testes were fixed by using the Davidson solution. All tissues were trimmed, processed, and embedded in paraffin wax. Samples from the femur were processed and embedded in paraffin after decalcification. Blocks were cut at an approximate thickness of 2–4 μm and stained with hematoxylin and eosin (HE) according to AnaPath Services GmbH SOP’s. The slides were checked under the microscope for a quality check before examination under a light microscope by the study pathologist.

Q: CCn1c(=O)[nH]c(=O)c2c1nc(Cc1cn3cc(C)sc3n1)n2CC1COC1 [TPT-004] was tested. Which “significant effects (more than 50% inhibition or stimulation) among 97 targets” value [1] did it give?
A: a significant effect was observed only for the rat homolog of TH

Q: And the “histopathological findings in heart, spleen, kidney, lung, brain, femur, testis, or ovary” value ([2]; 45 and 200 mg/kg BID)?
A: no test-related findings

Q: And the “histopathological finding in the liver” value ([2]; only at doses ≥45 mg/kg BID)?
A: multifocal, minimal centrilobular hypertrophy
